What is called Papp is a coefficient for how fast a substance crosses the barrier.

Data set [1] has as its system intraocular pressure of normotensive Dutch-Belted male rabbits. The data set can be described thus: Intraocular pressure lowering after a single topical eye drop in normotensive rabbits. The settings on record: for time for which the decrease in intraocular pressure is maintained: single 50 μl drop, treated eye; for sedation, ocular irritation, and changes in pupil diameter: single topical drop, observed throughout the experiment. In kind it is in vivo, rabbit. Here is the method: The free base of 4-bromo-N-imidazolidin-2-ylidene-1-H-benzimidazol-5-amine was dissolved in sterile distilled water, hydrochloric acid was added and the hydrochloric salt of the compound was formed in situ. The solution was titrated with sodium hydroxide until the pH of the solution reached 8.0. […] The experimental animals used were normotensive Dutch-Belted male rabbits. A single drop (50 μl) of the drug formulation was administered topically by pipette onto the right eye (treated eye) at approximately 07:00 AM hours. The intraocular pressure of the rabbits (treated and untreated eyes) was measured 0 hours before and at 0.5, 1, 2, 3, 4, 6 and 8 hours after topical eye drop single administration. The intraocular pressure taken before the eye drop administration (0 hours) was used as a baseline value. Prior to the tonometric measurements, 0.05% proparacaine (50 μl) was administered to each eye. Tonometric intraocular pressure measurements were obtained with a Mentor Pneumotonometer. Additionally, all studies were masked. All animals were examined for sedation, ocular irritation, and changes in pupil diameter throughout the course of the experiments.
The free base of 4-bromo-N-imidazolidin-2-ylidene-1-H-benzimidazol-5-amine was dissolved in sterile distilled water, hydrochloric acid was added and the hydrochloric salt of the compound was formed in situ. The solution was titrated with sodium hydroxide until the pH of the solution reached 8.0. The final concentration of 4-bromo-N-imidazolidin-2-ylidene-1-H-benzimidazol-5-amine is 0.2% by weight. The experimental animals used were normotensive Dutch-Belted male rabbits. A single drop (50 μl) of the drug formulation was administered topically by pipette onto the right eye (treated eye) at approximately 07:00 AM hours. The intraocular pressure of the rabbits (treated and untreated eyes) was measured 0 hours before and at 2, 4 and 6 hours after topical eye drop single administration. The intraocular pressure taken before the eye drop administration (0 hours) was used as a baseline value. Prior to the tonometric measurements, 0.05% proparacaine (50 μl) was administered to each eye. Tonometric intraocular pressure measurements were obtained with a Mentor Pneumotonmeter. Additionally, all studies were masked. All animals were examined for sedation, ocular irritation, and changes in pupil diameter throughout the course of the experiments.

Data set [2] is described as follows: Pharmacokinetic analysis of ocular tissues and plasma after topical dosing in rabbits. In kind it is in vivo, rabbit. The procedure:
Twenty-three Dutch Belted female rabbits (group 1) weighing approximately 1.75-2.34 kg were dosed with 35 μL of the formulation to the left eye. At different time points, prior to euthanasia, approximately 0.5 mL of blood was collected via central ear artery and placed in EDTA tubes. Blood samples were kept on ice during the duration of sample collection and centrifuged to harvest plasma. Animals were euthanized with 1 mL of Euthasol intravenously and the ocular tissues (aqueous humor, cornea, conjunctiva, iris-ciliary body, retina, and sclera) were collected from left and right eyes. All ocular tissues samples were placed in vials and kept on dry ice during the duration of sample collection. Ocular tissues were also collected from the control group (group 2) which received no dose. These ocular tissues served as analytical control. All ocular tissue and plasma samples were stored at or below −60° C. until bioanalysis.
(Acheampong et al. (Drug Metabolism and Disposition, Vol 23, No. 7, p 708-712).

In data set [3] the test system is intraocular pressure of hypertensive monkeys. The data set can be described thus: Intraocular pressure lowering in hypertensive monkeys. In kind it is in vivo, monkey. The note with it: composition of Example 1 (FIG. 4 legend: 0.5% solution), compared to placebo.
The nature of data set [4]: Iris-ciliary body accumulation and melanin binding (pharmacokinetic data). The note with it: unpublished pharmacokinetic data.
The conditions of data set [5]: rats, after oral dose of brimonidine tartrate; Acheampong et al. 2007; cited from earlier work.
Data set [6] in a line: Corneal penetration assay.
A further data set has as its system corneal epithelial cells. Description: Corneal penetration assay.
For data set [7] the following is noted: cited from earlier work; for clearance from the aqueous humor / passage through cornea and sclera: following topical dosing.
For data set [8] the following is noted: stated as found earlier; cited from earlier work.

In the case of `Brc1c(N=C2NCCN2)ccc2[nH]cnc12` [4-bromo-N-imidazolidin-2-ylidene-1-H-benzimidazol-5-amine], the “time for which the decrease in intraocular pressure is maintained” value in [1] (0.2% by weight solution, topical, FIG. 2) is above 6 h; in [1] (1% by weight solution, topical, FIG. 1) it was above 8 h; in data set [3], “up to 24 hours”. The “sedation, ocular irritation, and changes in pupil diameter” value in data set [1] (0.2% by weight solution) and in [1] (1% by weight solution) was “None of these effects were observed” in each case. Also, the “time for which sustained levels remain in the aqueous humor” value in data set [2] (35 μL topical to left eye, Dutch Belted female rabbits, FIG. 3A) is “over 8 hours”. The “time for which the level is maintained in several ocular tissues” value in data set [2] (35 μL topical to left eye, FIG. 3B) was “over 8 hrs”. In data set [2] (after topical ocular dosing), the plasma level entry was “low and below detectable level”. For the same compound, the “accumulation at the iris-ciliary body” value in [4] is given as “very little accumulation”. The melanin binding entry in data set [4] was “no sign of melanin binding”. The “amount found in urine” value in data set [5] is recorded as “trace amounts”. The compound also yielded a Papp in data set [6] of 0.119 ± 0.01 ×10⁻⁶ cm/s. In addition, in the data set with corneal epithelial cells, the “penetration of corneal epithelial cells (in words)” value was “poorly”.

As for `Nc1cc(Cl)c(N=C2NCCN2)c(Cl)c1` [apraclonidine, 2,6-dichloro-N-imidazolidin-2-ylidene-benzene-1,4-diamine], in data set [7], the “clearance from the aqueous humor” value is listed as “rapidly cleared”; the “passage through cornea and sclera” value was “readily pass through the cornea and sclera”. Moreover, in data set [8], the “accumulation in the iris-ciliary body” value is listed as “accumulate in the iris-ciliary body” and the “binding to the pigment melanin” value is listed as “high binding”.

Consider `Brc1c(NC2=NCCN2)ccc2nccnc12` [Brimonidine, (5-bromo-quinoxalin-6-yl)-imidazolidin-2-ylidene-amine], for which the “time in which intraocular pressure returns to baseline” value in [1] (brimonidine containing composition (0.15% solution per FIG. 1 legend), topical) was below 6 h. Besides, the “time in which levels in the aqueous humor are substantially decreased” value in [2] (0.15% brimonidine, similar study done previously, FIG. 3A) amounted to 3 h. Besides, in data set [7], the “clearance from the aqueous humor” value is “rapidly cleared”; the “passage through cornea and sclera” value was “readily pass through the cornea and sclera”. Besides, the “time in which the level decreases in aqueous humor” value in [7] (regardless of the dose, Acheampong et al.) is “three”. Besides, in [8], the “accumulation in the iris-ciliary body” value is recorded as “accumulate in the iris-ciliary body” and the “binding to the pigment melanin” value is on record as “high binding”. This compound gave a Papp in [6] of 8.57 ± 0.64 ×10⁻⁶ cm/s. For the same compound, the “penetration of corneal epithelial cells (in words)” value in the data set with corneal epithelial cells was “moderate penetrator”.

As to `OC[C@@H](O)[C@@H](O)[C@H](O)[C@H](O)CO` [Compound 3H-mannitol, 3H-mannitol], the “Papp (×10^−6 cm/s)” value with corneal epithelial cells (permeability coefficient, corneal epithelial cells) is listed as 0.512 ± 0.069 ×10^−6 cm/s.

Source of the values: US9889088B2, “Alpha-2 adrenergic agonist having long duration of intraocular pressure-lowering effect” (priority 2010, dated 2018).
